Assay results published in the NIST ThermoML archive (doi:10.1021/je200921u).
± gives the expanded uncertainty stated by the source.

Conditions: Liquid, Ebulliometric method (Recirculating still)

With `CCO` [ethanol] the “vapor or sublimation pressure” value (351.35 K) was 101.3 ± 2.6 kPa, the “vapor or sublimation pressure” value (356.11 K) was 121.3 ± 3.1 kPa and the “vapor or sublimation pressure” value (363.55 K) was 161.3 ± 4.1 kPa. For the same compound, the “vapor or sublimation pressure” value (369.55 K) was 201.3 ± 5.1 kPa.

With `CC(C)O` [propan-2-ol] the “vapor or sublimation pressure” value (355.35 K) was 101.3 ± 2.6 kPa, the “vapor or sublimation pressure” value (359.95 K) was 121.3 ± 3.1 kPa and the “vapor or sublimation pressure” value (367.65 K) was 161.3 ± 4.1 kPa. For the same compound, the “vapor or sublimation pressure” value (373.65 K) was 201.3 ± 5.1 kPa.

With `Cc1ccccc1` [toluene] the “vapor or sublimation pressure” value (383.55 K) was 101.3 ± 2.7 kPa, the “vapor or sublimation pressure” value (390.25 K) was 121.3 ± 3.2 kPa and the “vapor or sublimation pressure” value (390.26 K) was 121.3 ± 3.2 kPa. For the same compound, the “vapor or sublimation pressure” value (400.75 K) was 161.3 ± 4.3 kPa and the “vapor or sublimation pressure” value (409.65 K) was 201.3 ± 5.3 kPa.
